Reference: PubChem BioAssay (NCI)
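Values below derive from 48-hour exposures of cells grown in 96-well plates, with endpoints linearly interpolated between the two concentrations bracketing the appropriate inhibition level. At the GI50, growth is halved. At the TGI there is no net growth.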

Key:
Test in all cases: inhibition of tumour cell growth, NCI panel, 48 h
COLO 205 colon = system: COLO 205 colon
HCT-15 colon = system: HCT-15 colon
OVCAR-4 ovarian = system: OVCAR-4 ovarian
PC-3 prostate = system: PC-3 prostate
IGROV1 ovarian = system: IGROV1 ovarian
M14 melanoma = system: M14 melanoma
MDA-MB-231 breast = system: MDA-MB-231 breast
NCI/ADR-RES ovarian = system: NCI/ADR-RES ovarian
MALME-3M melanoma = system: MALME-3M melanoma
DU-145 prostate = system: DU-145 prostate
BT-549 breast = system: BT-549 breast
TK-10 renal = system: TK-10 renal
HCC-2998 colon = system: HCC-2998 colon
HCT-116 colon = system: HCT-116 colon
NCI-H522 lung = system: NCI-H522 lung
MDA-MB-468 breast = system: MDA-MB-468 breast
SK-OV-3 ovarian = system: SK-OV-3 ovarian
NCI-H23 lung = system: NCI-H23 lung
A549 NSCLC = system: A549 NSCLC
UO-31 renal = system: UO-31 renal
CAKI-1 renal = system: CAKI-1 renal
ACHN renal = system: ACHN renal
786-0 renal = system: 786-0 renal
RXF 393 renal = system: RXF 393 renal
HL-60(TB) leukemia = system: HL-60(TB) leukemia
SF-539 CNS = system: SF-539 CNS
OVCAR-5 ovarian = system: OVCAR-5 ovarian
HOP-92 NSCLC = system: HOP-92 NSCLC
EKVX NSCLC = system: EKVX NSCLC
SN12C renal = system: SN12C renal
UACC-257 melanoma = system: UACC-257 melanoma
SF-268 CNS = system: SF-268 CNS
HS 578T breast = system: HS 578T breast
SK-MEL-28 melanoma = system: SK-MEL-28 melanoma
A498 renal = system: A498 renal
K-562 leukemia = system: K-562 leukemia
RPMI-8226 leukemia = system: RPMI-8226 leukemia
T-47D breast = system: T-47D breast
UACC-62 melanoma = system: UACC-62 melanoma
SNB-19 CNS = system: SNB-19 CNS
SF-295 CNS = system: SF-295 CNS
SNB-75 CNS = system: SNB-75 CNS
HOP-62 NSCLC = system: HOP-62 NSCLC
SK-MEL-2 melanoma = system: SK-MEL-2 melanoma
LOX IMVI melanoma = system: LOX IMVI melanoma
SK-MEL-5 melanoma = system: SK-MEL-5 melanoma
NCI-H226 lung = system: NCI-H226 lung
MCF7 breast = system: MCF7 breast

Structure (SMILES): COc1ccc2c(c1)c(-c1cc3nc(-c4cn(C)c5ncc(Br)cc45)cc(N)n3n1)cn2C
- GI50 (COLO 205 colon): 1.81 µM
- TGI (COLO 205 colon): 3.44 µM
- GI50 (HCT-15 colon): 1.48 µM
- TGI (HCT-15 colon): 3.54 µM
- GI50 (OVCAR-4 ovarian): 2.13 µM
- TGI (OVCAR-4 ovarian): 5.17 µM
- GI50 (PC-3 prostate): 2.45 µM
- TGI (PC-3 prostate): > 100 µM
- GI50 (IGROV1 ovarian): 2.04 µM
- TGI (IGROV1 ovarian): 4.54 µM
- GI50 (M14 melanoma): 1.66 µM
- TGI (M14 melanoma): 3.23 µM
- GI50 (MDA-MB-231 breast): 1.62 µM
- TGI (MDA-MB-231 breast): 3.28 µM
- GI50 (NCI/ADR-RES ovarian): 2.28 µM
- TGI (NCI/ADR-RES ovarian): 5.62 µM
- GI50 (MALME-3M melanoma): 1.92 µM
- TGI (MALME-3M melanoma): 3.47 µM
- GI50 (DU-145 prostate): 2.79 µM
- TGI (DU-145 prostate): 8.15 µM
- GI50 (BT-549 breast): 2.12 µM
- TGI (BT-549 breast): 4.49 µM
- GI50 (TK-10 renal): 2.36 µM
- TGI (TK-10 renal): 6.69 µM
- GI50 (HCC-2998 colon): 1.66 µM
- TGI (HCC-2998 colon): 3.16 µM
- GI50 (HCT-116 colon): 1.66 µM
- TGI (HCT-116 colon): 3.04 µM
- GI50 (NCI-H522 lung): 1.87 µM
- TGI (NCI-H522 lung): 3.9 µM
- GI50 (MDA-MB-468 breast): 1.32 µM
- TGI (MDA-MB-468 breast): 2.82 µM
- GI50 (SK-OV-3 ovarian): 2.41 µM
- TGI (SK-OV-3 ovarian): 6.25 µM
- GI50 (NCI-H23 lung): 2.25 µM
- TGI (NCI-H23 lung): 6.77 µM
- GI50 (A549 NSCLC): 2.31 µM
- TGI (A549 NSCLC): 9.05 µM
- GI50 (UO-31 renal): 1.78 µM
- TGI (UO-31 renal): 4.41 µM
- GI50 (CAKI-1 renal): 1.48 µM
- TGI (CAKI-1 renal): 3.3 µM
- GI50 (ACHN renal): 1.5 µM
- TGI (ACHN renal): 3.15 µM
- GI50 (786-0 renal): 1.73 µM
- TGI (786-0 renal): 3.16 µM
- GI50 (RXF 393 renal): 1.96 µM
- TGI (RXF 393 renal): 3.57 µM
- GI50 (HL-60(TB) leukemia): 2.07 µM
- TGI (HL-60(TB) leukemia): 5.39 µM
- GI50 (SF-539 CNS): 1.67 µM
- TGI (SF-539 CNS): 3.13 µM
- GI50 (OVCAR-5 ovarian): 1.63 µM
- TGI (OVCAR-5 ovarian): 3.96 µM
- GI50 (HOP-92 NSCLC): 2.05 µM
- TGI (HOP-92 NSCLC): 4.24 µM
- GI50 (EKVX NSCLC): 1.48 µM
- TGI (EKVX NSCLC): 3.39 µM
- GI50 (SN12C renal): 2.11 µM
- TGI (SN12C renal): 6.03 µM
- GI50 (UACC-257 melanoma): 1.79 µM
- TGI (UACC-257 melanoma): 3.72 µM
- GI50 (SF-268 CNS): 2.3 µM
- TGI (SF-268 CNS): 6.14 µM
- GI50 (HS 578T breast): 2.29 µM
- TGI (HS 578T breast): 6.47 µM
- GI50 (SK-MEL-28 melanoma): 1.61 µM
- TGI (SK-MEL-28 melanoma): 3.02 µM
- GI50 (A498 renal): 2.18 µM
- TGI (A498 renal): 7.22 µM
- GI50 (K-562 leukemia): 3.17 µM
- TGI (K-562 leukemia): > 100 µM
- GI50 (RPMI-8226 leukemia): 3.32 µM
- TGI (RPMI-8226 leukemia): > 100 µM
- GI50 (T-47D breast): 1.66 µM
- TGI (T-47D breast): 3.68 µM
- GI50 (UACC-62 melanoma): 1.56 µM
- TGI (UACC-62 melanoma): 3.1 µM
- GI50 (SNB-19 CNS): 2.25 µM
- TGI (SNB-19 CNS): 5.58 µM
- GI50 (SF-295 CNS): 1.77 µM
- TGI (SF-295 CNS): 3.65 µM
- GI50 (SNB-75 CNS): 1.66 µM
- TGI (SNB-75 CNS): 4.58 µM
- GI50 (HOP-62 NSCLC): 2.09 µM
- TGI (HOP-62 NSCLC): 5.98 µM
- GI50 (SK-MEL-2 melanoma): 2.07 µM
- TGI (SK-MEL-2 melanoma): 4.84 µM
- GI50 (LOX IMVI melanoma): 1.53 µM
- TGI (LOX IMVI melanoma): 2.89 µM
- GI50 (SK-MEL-5 melanoma): 3.27 µM
- TGI (SK-MEL-5 melanoma): 12.1 µM
- GI50 (NCI-H226 lung): 4.19 µM
- TGI (NCI-H226 lung): 20.1 µM
- GI50 (MCF7 breast): 1.77 µM
- TGI (MCF7 breast): 3.72 µM
